For orientation: IC50 means the point on the concentration scale where inhibition reaches its midpoint.

Some results are limits rather than exact numbers.

The results in this text go back to patent US9856274B2, “Substituted pyrazolo[1,5-a]pyridines as PDE-10 inhibitors” (Sunovion Pharmaceuticals Inc., priority 2011, dated 2018).

recombinant human PDE-10 enzyme, sequence (Q9Y233 whole entry): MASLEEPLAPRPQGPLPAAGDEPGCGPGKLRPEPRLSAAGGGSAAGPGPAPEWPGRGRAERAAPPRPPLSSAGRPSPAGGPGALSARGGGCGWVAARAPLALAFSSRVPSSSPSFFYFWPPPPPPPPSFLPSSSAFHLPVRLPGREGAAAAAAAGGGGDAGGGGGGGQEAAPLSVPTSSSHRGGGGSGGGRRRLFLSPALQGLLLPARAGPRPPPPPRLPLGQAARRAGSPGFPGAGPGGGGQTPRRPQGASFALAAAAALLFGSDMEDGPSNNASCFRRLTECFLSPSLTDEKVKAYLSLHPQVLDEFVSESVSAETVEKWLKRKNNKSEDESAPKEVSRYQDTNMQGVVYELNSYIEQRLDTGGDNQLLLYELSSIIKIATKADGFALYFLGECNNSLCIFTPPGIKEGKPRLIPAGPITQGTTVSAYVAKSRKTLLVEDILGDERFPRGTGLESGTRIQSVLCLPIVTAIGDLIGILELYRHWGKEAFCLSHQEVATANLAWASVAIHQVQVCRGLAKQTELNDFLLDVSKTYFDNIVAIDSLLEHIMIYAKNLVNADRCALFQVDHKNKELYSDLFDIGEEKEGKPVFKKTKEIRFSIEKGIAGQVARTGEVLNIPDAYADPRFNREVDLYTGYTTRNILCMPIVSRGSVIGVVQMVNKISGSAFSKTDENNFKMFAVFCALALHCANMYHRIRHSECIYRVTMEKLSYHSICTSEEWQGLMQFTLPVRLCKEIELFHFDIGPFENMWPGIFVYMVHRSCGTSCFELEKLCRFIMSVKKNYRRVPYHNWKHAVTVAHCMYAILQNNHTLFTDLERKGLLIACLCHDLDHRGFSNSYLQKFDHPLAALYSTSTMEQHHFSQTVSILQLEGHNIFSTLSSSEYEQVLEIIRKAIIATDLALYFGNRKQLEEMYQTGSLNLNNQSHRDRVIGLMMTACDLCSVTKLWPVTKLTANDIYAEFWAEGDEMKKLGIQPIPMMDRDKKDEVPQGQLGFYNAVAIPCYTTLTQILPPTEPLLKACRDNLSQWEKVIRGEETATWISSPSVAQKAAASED

For this assay, the target named is recombinant human PDE-10 enzyme (Homo sapiens (Human), UniProt Q9Y233). The assay can be described thus: Human PDE-10 inhibition enzyme assay (IMAP PDE Fluorescence Polarization). The assay is classed as biochemical. The conditions noted are these: recombinant human PDE-10 expressed in baculoviral system; Fluorescein-labeled cAMP/cGMP substrate; 40-minute incubation at 37° C. How it is done:
In one embodiment, the compounds provided herein were assayed for their ability to inhibit human PDE-10A. In one embodiment, the activities of the compounds were determined using the Molecular Devices IMAP PDE Fluorescence Polarization assay using recombinant human PDE-10 enzyme expressed in a baculoviral system. Briefly, 10 μL of a compound (0.2 nM-20 μM) was added to either a 96-well half area black plate or a 384-well black plate along with 10 μL of Fluorescein-labeled cAMP/cGMP substrate as per manufacturer's instructions and 10 μL of PDE enzyme (activity 0.1 U). Following a 40-minute incubation at 37° C., 60 μL of IMAP binding reagent was added. The plate was then read on a Perkin Elmer Victor (480-535 nm). The data was analyzed using Prism Software (GraphPad Inc, San Diego, Calif.).
For orientation: Fluorescence polarisation rises when a labelled molecule tumbles more slowly, as on binding a larger partner.
Take `Cc1ccc(C)n2cc(CCc3nc4c5cccnc5ccn4n3)nc12` [Compound 34]: the IC50 was in the range of 100 to 500 nM.
Under `Cc1ncc(C)n2nc(CCc3nc4c5cccnc5ccc4n3C)nc12` [Compound 6] stands not above 10 nM; under `Cc1cnc(C)n2nc(CCc3nc4c5cccnc5ccc4n3C)nc12` [Compound 10], 10 to 100 nM; under `Cc1cccc2nc(CCc3nc4c5cccnc5ccn4n3)nn12` [Compound 14], 10 to 100 nM.
As for `Cc1ncc(C)n2cc(CCc3nc4c5cccnc5ccn4n3)nc12` [Compound 27], the IC50 lay in the range of 10 to 100 nM.
Regarding `Cc1ncc(C)n2nc(CCc3nc4c5c(ccc4n3C)OCCO5)nc12` [Compound 42], the IC50 is not above 10 nM.
As to `Cc1ccc(C)n2cc(CCc3nc4c5cccnc5ccc4n3C)nc12` [Compound 32], the IC50 lay in the range of 10 to 100 nM.
Take `Cc1ncc(C)n2nc(CCc3nc4c5c(ccn4c3C)NCCO5)nc12` [Compound 41]: the concentration for half-maximal inhibition (IC50) lay within 10 to 100 nM.
For the compound `Cc1ncc(C)n2cc(CCc3nc4c5cccnc5ccc4n3C)nc12` [Compound 25], the IC50 fell in the range of 10 to 100 nM.
Regarding `Cc1ncc(C)n2nc(CCc3nc4c5cccnc5ccn4c3C)nc12` [Compound 39], the IC50 is not above 10 nM.
For the compound `Cc1ncc(C)n2nc(CCc3nc4c5cccnc5ccn4n3)nc12` [Compound 13], the IC50 was 10 to 100 nM.
`Cc1ncc(C)n2nc(CCc3nc4c5ncccc5ccc4n3C)nc12` [Compound 18]: the IC50 was not above 10 nM.
Consider `c1cnc2ccn3nc(CCc4nc5ccccn5n4)nc3c2c1` [Compound 15], for which the IC50 was more than 500 nM.
In the case of `Cc1ncc(C)n2nc(CCc3cn4ccccc4n3)nc12` [Compound 1], the IC50 lay in the range of 10 to 100 nM.
The same measure for `Cc1ncc(C)n2nc(CCc3nc4c5c(ccn4c3C)CCCC5)nc12` [Compound 38]: not above 10 nM; for `Cn1c(CCc2nc3ccccc3o2)nc2c3cccnc3ccc21` [Compound 4]: 100 to 500 nM.
For the compound `Cn1c(CCc2cn3ccccc3n2)nc2c3cccnc3ccc21` [Compound 26], the IC50 is more than 500 nM.
With `Cc1ncc(C)n2nc(CCc3nc4c5cccnc5ccn4n3)cc12` [Compound 35], the IC50 was 10 to 100 nM.
With `Cc1ncc(C)n2nc(CCc3nc4ccc5ncccc5n4n3)nc12` [Compound 12], the IC50 is 100 to 500 nM.
For the compound `Cc1ncc(C)n2nc(CCc3nc4c5c(ccc4n3C)CCCC5)nc12` [Compound 37], the IC50 is not above 10 nM.
The same measure for `Cc1c(CCc2nc3c(F)ccc(C)n3n2)nc2c3cccnc3ccn12` [Compound 40]: not above 10 nM; for `Cc1ncc(C)n2nc(CCc3nc4c(ccc5ncccc54)[nH]3)nc12` [Compound 36]: not above 10 nM.
On to `Cc1ccc(Cl)c2cc(CCc3nc4c5cccnc5ccc4n3C)nn12` [Compound 33], for which the concentration for half-maximal inhibition (IC50) is not above 10 nM.
For the compound `Cc1ncc(C)n2nc(CCc3nc4c5cccnc5sc4n3C)nc12` [Compound 7], the IC50 was not above 10 nM.
In the case of `c1cnc2c(c1)ccn1nc(CCc3nc4ccccn4n3)nc21` [Compound 22], the IC50 is more than 500 nM.
In the case of `Cc1ncc(C)n2nc(CCc3nc4c5cccnc5ccc4n3C)cc12` [Compound 24], the IC50 is not above 10 nM.
Under `Cc1ncc(C)n2nc(CC(C)c3nc4c5cccnc5ccc4n3C)nc12` (centres unmarked) [Compound 30] stands 10 to 100 nM.
Take `Cc1cccc2nc(CCc3nc4c5cccnc5ccc4n3C)nn12` [Compound 8]: the IC50 is not above 10 nM.
For the compound `Cc1cc(C)n2nc(CCc3nc4c5cccnc5ccn4n3)nc2n1` [Compound 17], the IC50 fell in the range of 10 to 100 nM.
Under `Cc1cccc2nc(CCc3nc4n(n3)CCc3ncccc3-4)nn12` [Compound 23, 2-(2-(5-Methyl-[1,2,4]triazolo[1,5-a]pyridin-2-yl)ethyl)-5,6-dihydro-[1,2,4]triazolo[5,1-f][1,6]naphthyridine] stands more than 500 nM; under `Cc1ncc(C)n2nc(C(C)Cc3nc4c5cccnc5ccc4n3C)nc12` (centres unmarked) [Compound 29], not above 10 nM; under `Cn1c(CCc2cn3ccncc3n2)nc2c3cccnc3ccc21` [Compound 31], more than 500 nM.
With `Cc1ccc(C)n2nc(CCc3nc4c5cccnc5ccn4n3)nc12` [Compound 16], the IC50 was not above 10 nM.
Take `Cc1ncc(C)n2nc(CCc3nc4c(ccc5ncccc54)[nH]3)cc12` [Compound 28]: the IC50 fell in the range of 10 to 100 nM.
The same measure for `Cn1c(CCc2nc3ccccn3n2)nc2c3ncccc3ccc21` [Compound 20]: 100 to 500 nM; for `Cc1cccn2nc(CCc3nc4c5cccnc5ccc4n3C)nc12` [Compound 9]: not above 10 nM.
The same measure for `Cc1ncc(C)n2nc(CCc3nc4ccccn4n3)nc12` [Compound 3]: more than 500 nM.
In the case of `Cc1ncc(C)n2nc(CCc3nc4c5nccnc5ccc4n3C)nc12` [Compound 19], the half-maximal inhibitory concentration (IC50) is not above 10 nM.
The same measure for `Cn1c(CCc2nc3ccccn3n2)nc2c3cccnc3ccc21` [Compound 5]: 10 to 100 nM; for `Cn1c(CCc2nc3ccccn3n2)nc2c3nccnc3ccc21` [Compound 21]: 100 to 500 nM; for `Cc1ccc(C)n2nc(CCc3nc4c5cccnc5ccc4n3C)nc12` [Compound 11]: not above 10 nM.
